Assay results: publication doi:10.1101/2025.08.05.668571v1, “Preliminary Study on the Mechanisms of Cytokinin and Its Receptor Binding Diversity” (biorxiv, 2025)

Target: T1, AHK4^CD (6×His-AHK4^CD-GFP) (Arabidopsis thaliana, UniProt Q9C5U0)
T1 construct: extracellular CHASE domain, residues 126-395; N-terminal 6×His via linker, C-terminal GFP, tags kept; pRSF-Duet, E. coli Rosetta (BL21), Ni-NTA
T1 sequence (Q9C5U0 149-418): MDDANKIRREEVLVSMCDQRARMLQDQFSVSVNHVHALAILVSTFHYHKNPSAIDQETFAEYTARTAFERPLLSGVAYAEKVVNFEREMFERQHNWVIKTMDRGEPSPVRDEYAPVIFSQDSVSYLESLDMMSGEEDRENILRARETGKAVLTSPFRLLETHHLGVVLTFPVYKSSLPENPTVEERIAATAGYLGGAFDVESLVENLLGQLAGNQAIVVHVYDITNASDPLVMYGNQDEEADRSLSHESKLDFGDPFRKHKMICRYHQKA
Assay: microscale thermophoresis (MST), GFP-tagged target
Type: binding

**Q.** How did the Kd turn out when `CC(C)=CCNc1ncnc2nc[nH]c12` [2iP] was run?
**A.** 540 ± 262 nM

**Q.** Which Kd does the source give for `c1ccc(CNc2ncnc3nc[nH]c23)cc1` [6-BA] here?
**A.** 27.7 ± 20.7 nM
